Assay results as given in patent US9546157B2, “Asymmetric piperidinyl-substituted ureas as medicines” (Helsinn Healthcare SA, priority 2014, dated 2017).

Columns and labels:
GHSR1a [1] = molecular target: T1, GHSR1a (Homo sapiens, UniProt Q92847); experiment: Calcium FLIPR assay, GHSR-1a antagonism (reduction of ghrelin response); assay type: cell-based; conditions: HEK293/GHSR1a cells, ghrelin 10 nM
T1 construct: expressed in transfected cells; host or cells: HEK293
Description: (§1) The intracellular calcium assay was carried out in a 384-well format FLIPR™ (Molecular Device) HEK293/GHSR1a cell line. Cells were seeded 24 hr prior to the experiments at an optimal density per well. Preincubation with selected calcium dye lasted for 30-60 min at room temperature or 37° C. Test compounds, dissolved in DMSO, were added at the appropriate time and incubated for 15 min followed by the addition of ghrelin with FlexStation or FLIPR. Relative fluorescence was monitored by the FLIPR™ Molecular Device. EC50 and IC50 values were estimated from dose-response data using GraphPad Prism software. To check for GHSR-1a agonism the compound was added at t=20 sec. and the calcium response was followed for 2 minutes. To check for GHSR-1a antagonism the compound and Ghrelin (10 nM) were added to the cells at t=20 sec. and the calcium response was measured for 2 minutes. The potency of the antagonist was calculated by its ability to reduce the ghrelin response. Dose-response curves were made for relevant antagonists.

GHSR1a [2] = molecular target: T1, GHSR1a; experiment: Calcium FLIPR assay, GHSR-1a agonism; assay type: cell-based; design: Emax: unit not given here; conditions: HEK293/GHSR1a cells
Description: as §1

T1 sequence (Q92847 whole entry): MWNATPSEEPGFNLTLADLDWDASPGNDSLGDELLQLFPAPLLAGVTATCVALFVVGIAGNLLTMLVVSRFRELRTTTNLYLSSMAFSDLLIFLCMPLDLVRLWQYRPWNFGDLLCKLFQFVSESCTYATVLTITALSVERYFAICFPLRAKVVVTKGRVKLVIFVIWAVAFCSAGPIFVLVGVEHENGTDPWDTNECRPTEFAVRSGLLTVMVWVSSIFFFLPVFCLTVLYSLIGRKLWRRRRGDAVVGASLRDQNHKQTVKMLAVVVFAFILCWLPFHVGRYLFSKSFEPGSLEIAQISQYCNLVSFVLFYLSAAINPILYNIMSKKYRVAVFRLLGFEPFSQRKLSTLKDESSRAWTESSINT

IC50 (GHSR1a [1]) [µM]	EC50 (GHSR1a [2]) [µM]	Emax (GHSR1a [2])	SMILES
4.2	63	–	CC(NC(=O)N(C)C1CCOCC1)c1ccc(-c2cncnc2)c(Cl)c1Cl (stereo not drawn) [Compound H0586, 3-(1-(2,3-dichloro-4-(pyrimidin-5-yl)phenyl)ethyl)-1-methyl-1-(tetrahydro-2H-pyran-4-yl)urea]
0.004	0.011	2300	CC(NC(=O)N(C)C1CCN(C)CC1)c1ccc(-c2ccc(C=O)s2)c(Cl)c1Cl (stereo not drawn) [Compound H0651, 3-(1-(2,3-dichloro-4-(5-formylthiophen-2-yl)phenyl)ethyl)-1-methyl-1-(1-methylpiperidin-4-yl)urea]
0.008	0.01	2168	CC(NC(=O)N(C)C1CCN(C)CC1)c1ccc(-c2ccc(CF)s2)c(Cl)c1Cl (stereo not drawn) [Compound H0668, 3-(1-(2,3-dichloro-4-(5-(fluoromethyl)thiophen-2-yl)phenyl)ethyl)-1-methyl-1-(1-methylpiperidin-4-yl)urea]
0.075	> 30	–	CC(NC(=O)N(C)C1CCN(C)CC1)c1ccc(-c2cncc(Cl)n2)c(Cl)c1Cl (stereo not drawn) [Compound H0791, 3-(1-(2,3-dichloro-4-(6-chloropyrazin-2-yl)phenyl)ethyl)-1-methyl-1-(1-methylpiperidin-4-yl)urea]
0.008	0.021	4927	CN1CCC(N(C)C(=O)NC(C#N)c2ccc(-c3cncc(C#N)c3)c(Cl)c2Cl)CC1 (stereo not drawn) [Compound H0666, 3-(cyano(2,3-dichloro-4-(5-cyanopyridin-3-yl)phenyl)methyl)-1-methyl-1-(1-methylpiperidin-4-yl)urea]
0.057	> 30	–	CC(NC(=O)N(C)C1CCN(C)C1)c1ccc(-c2cccnc2)c(Cl)c1Cl (stereo not drawn) [Compound H0526, 3-(1-(2,3-dichloro-4-(pyridin-3-yl)phenyl)ethyl)-1-methyl-1-(1-methylpyrrolidin-3-yl)urea]
3.4	> 30	–	CC(NC(=O)N(C)C1CCN(C)CC1)c1ccc(-c2sccc2C(N)=O)c(Cl)c1Cl (stereo not drawn) [Compound H0774, 2-(2,3-dichloro-4-(1-(3-methyl-3-(1-methylpiperidin-4-yl)ureido)ethyl)phenyl)thiophene-3-carboxamide]
0.037	0.051	1383	CC(NC(=O)N(C)C1CCN(C)CC1)c1ccc(-c2ccc(C3CC3)cn2)c(Cl)c1Cl (stereo not drawn) [Compound H0849, 3-(1-(2,3-dichloro-4-(5-cyclopropylpyridin-2-yl)phenyl)ethyl)-1-methyl-1-(1-methylpiperidin-4-yl)urea]
> 30	> 30	–	CC(=O)N1CCC(N(C)C(=O)NC(C)c2ccc(-c3cncnc3)c(Cl)c2Cl)CC1 (stereo not drawn) [Compound H0588, 1-(1-acetylpiperidin-4-yl)-3-(1-(2,3-dichloro-4-(pyrimidin-5-yl)phenyl)ethyl)-1-methylurea]
0.149	0.217	2339	CC(NC(=O)N(C)C1CCN(C)CC1)c1ccc(-c2ccc(C#N)cc2)c(Cl)c1Cl (stereo not drawn) [Compound H0809, 3-(1-(2,3-dichloro-4′-cyano-[1,1′-biphenyl]-4-yl)ethyl)-1-methyl-1-(1-methylpiperidin-4-yl)urea]
0.009	> 30	–	COC(=O)c1ccc(CN(C(=O)NC(C)c2ccc(-c3cccnc3)c(Cl)c2Cl)C2CCN(C)CC2)cc1 (stereo not drawn) [Compound H0539, methyl 4-((3-(1-(2,3-dichloro-4-(pyridin-3-yl)phenyl)ethyl)-1-(1-methylpiperidin-4-yl)ureido)methyl)benzoate]
0.453	> 30	–	COCCc1cncc(-c2ccc(C(C)NC(=O)N(C)C3CCN(C)CC3)c(Cl)c2Cl)c1 (stereo not drawn) [Compound H0714, 3-(1-(2,3-dichloro-4-(5-(2-methoxyethyl)pyridin-3-yl)phenyl)ethyl)-1-methyl-1-(1-methylpiperidin-4-yl)urea]
0.162	> 30	–	CC(NC(=O)N(C)C1CCN(C)CC1)c1ccc(-c2cnc(N)nc2)c(Cl)c1Cl (stereo not drawn) [Compound H0798, 3-(1-(4-(2-aminopyrimidin-5-yl)-2,3-dichlorophenyl)ethyl)-1-methyl-1-(1-methylpiperidin-4-yl)urea]
0.197	0.1	–	CC(NC(=O)N(C)C1CCN(C)CC1)c1ccc(-c2cnn(CCO)c2)c(Cl)c1Cl (stereo not drawn) [Compound H0693, 3-(1-(2,3-dichloro-4-(1-(2-hydroxyethyl)-1H-pyrazol-4-yl)phenyl)ethyl)-1-methyl-1-(1-methylpiperidin-4-yl)urea]
523	> 30	–	CN1CCC(N(C)C(=O)NC(CO)c2ccc(-c3cncnc3)c(Cl)c2Cl)CC1 (stereo not drawn) [Compound H0670, 3-(1-(2,3-dichloro-4-(pyrimidin-5-yl)phenyl)-2-hydroxyethyl)-1-methyl-1-(1-methylpiperidin-4-yl)urea]
0.04	0.885	–	CC(NC(=O)N(C)C1CCN(C)CC1)c1ccc(-c2ccc3[nH]ccc3c2)c(Cl)c1Cl (stereo not drawn) [Compound H0515, 3-(1-(2,3-dichloro-4-(1H-indol-5-yl)phenyl)ethyl)-1-methyl-1-(1-methylpiperidin-4-yl)urea]
0.274	> 30	–	COc1ncc(-c2ccc(C(C)NC(=O)N(C)C3CCN(C)CC3)c(Cl)c2Cl)c(OC)n1 (stereo not drawn) [Compound H0663, 3-(1-(2,3-dichloro-4-(2,4-dimethoxypyrimidin-5-yl)phenyl)ethyl)-1-methyl-1-(1-methylpiperidin-4-yl)urea]
0.007	0.005	1500	CC(NC(=O)N(C)C1CCN(C)CC1)c1ccc(-c2ccc(C=O)s2)c(Cl)c1Cl (stereo not drawn) [Compound H0652, 3-(1-(2,3-dichloro-4-(5-formylthiophen-2-yl)phenyl)ethyl)-1-methyl-1-(1-methylpiperidin-4-yl)urea]
0.009	0.009	4662	CC(NC(=O)N(C)C1CCN(C)CC1)c1ccc(-c2cnc(C(=O)N(C)C)cn2)c(Cl)c1Cl (stereo not drawn) [Compound H0771, 5-(2,3-dichloro-4-(1-(3-methyl-3-(1-methylpiperidin-4-yl)ureido)ethyl)phenyl)-N,N-dimethylpyrazine-2-carboxamide]
0.154	> 30	–	CC(NC(=O)N(C)C1CCN(C)CC1)c1ccc(-c2cn[nH]c2)c(Cl)c1F (stereo not drawn) [Compound H0571, 3-(1-(3-chloro-2-fluoro-4-(1H-pyrazol-4-yl)phenyl)ethyl)-1-methyl-1-(1-methylpiperidin-4-yl)urea]
0.17	0.13	3815	CC(NC(=O)N(C)C1CCN(C)CC1)c1ccc(NC2CC2)c(Cl)c1Cl (stereo not drawn) [Compound H0846, 3-(1-(2,3-dichloro-4-(cyclopropylamino)phenyl)ethyl)-1-methyl-1-(1-methylpiperidin-4-yl)urea]
0.705	> 30	–	Cc1nccnc1-c1ccc(C(CC2CC2)NC(=O)N(C)C2CCN(C)CC2)c(Cl)c1Cl (stereo not drawn) [Compound H0844, 3-(2-cyclopropyl-1-(2,3-dichloro-4-(3-methylpyrazin-2-yl)phenyl)ethyl)-1-methyl-1-(1-methylpiperidin-4-yl)urea]
1.85	> 30	–	CC(NC(=O)N(C)C1CCN(C)CC1)c1ccc(-c2cncc(-c3c[nH]cn3)c2)c(Cl)c1Cl (stereo not drawn) [Compound H0711, 3-(1-(4-(5-(1H-imidazol-4-yl)pyridin-3-yl)-2,3-dichlorophenyl)ethyl)-1-methyl-1-(1-methylpiperidin-4-yl)urea]
0.216	> 30	–	CC(NC(=O)N(C)C1CCN(C)CC1)c1ccc(-c2cncc(-c3ccoc3)c2)c(Cl)c1Cl (stereo not drawn) [Compound H0746, 3-(1-(2,3-dichloro-4-(5-(furan-3-yl)pyridin-3-yl)phenyl)ethyl)-1-methyl-1-(1-methylpiperidin-4-yl)urea]
0.12	> 4	–	CC(NC(=O)N(C)C1CCN(C)CC1)c1ccc(C#Cc2ccc(C(N)=O)s2)c(Cl)c1Cl (stereo not drawn) [Compound H0776, 5-((2,3-dichloro-4-(1-(3-methyl-3-(1-methylpiperidin-4-yl)ureido)ethyl)phenyl)ethynyl)thiophene-2-carboxamide]
0.003	0.012	3100	CC(=O)c1ccsc1-c1ccc(C(C)NC(=O)N(C)C2CCN(C)CC2)c(Cl)c1Cl (stereo not drawn) [Compound H0688, 3-(1-(4-(3-acetylthiophen-2-yl)-2,3-dichlorophenyl)ethyl)-1-methyl-1-(1-methylpiperidin-4-yl)urea]
0.284	0.026	1137	COC(=O)c1cncc(-c2ccc(C(C)NC(=O)N(C)C3CCN(C)CC3)c(Cl)c2Cl)n1 (stereo not drawn) [Compound H0789, methyl 6-(2,3-dichloro-4-(1-(3-methyl-3-(1-methylpiperidin-4-yl)ureido)ethyl)phenyl)pyrazine-2-carboxylate]
0.339	> 30	–	CC(NC(=O)N(C)C1CCN(C)CC1)c1ccc(-c2cnccn2)c(Cl)c1F (stereo not drawn) [Compound H0856, 3-(1-(3-chloro-2-fluoro-4-(pyrazin-2-yl)phenyl)ethyl)-1-methyl-1-(1-methylpiperidin-4-yl)urea]
0.375	0.263	2740	CC(NC(=O)N(C)C1CCN(C)CC1)c1ccc(-c2cnc(N(C)C)nc2)c(Cl)c1Cl (stereo not drawn) [Compound H0804, 3-(1-(2,3-dichloro-4-(2-(dimethylamino)pyrimidin-5-yl)phenyl)ethyl)-1-methyl-1-(1-methylpiperidin-4-yl)urea]
